Data from patent US8252940B2, “5-substituted-2-imino-thiazolidinone compounds and their use as inhibitors of bacterial infection” (University of Washington, priority 2008, dated 2012).

How the values were obtained:
InvG, PrgH and PrgK = assay: Abundance and membrane localization of NC proteins (Western blot of membrane fractions); assay type: cell-based, S. typhimurium; conditions: 380 μM
Experimental: FIG. 3A is an image of a Western blot of type III secretion NC proteins isolated from S. typhimurium grown in the presence (+) or absence (−) of 380 μM of Compound 1. FIG. 3B is an image of a Western blot of membrane fractions of S. typhimurium grown in the presence (+) or absence (−) of 380 μM of Compound 1. In the presence of Compound 1, InvG cellular levels and bacterial membrane localization were unaltered (FIGS. 3A and 3B). Similarly, protein levels and localization of the other NC proteins PrgH and PrgK were unchanged.

Ysc T3S system = assay: Secretion profile of Y. enterocolitica Ysc T3S system; assay type: cell-based, Yersinia enterocolitica; conditions: 380 μM
[1] = tested on: S. typhimurium T3S secreted substrates; assay type: cell-based; conditions: Western blot
T3S needle complex (NC) = T3S needle complex (NC) (Salmonella typhimurium, UniProt P35672); assay type: cell-based, S. typhimurium
Chain of T3S needle complex (NC) (P35672 25-562, one chain of several): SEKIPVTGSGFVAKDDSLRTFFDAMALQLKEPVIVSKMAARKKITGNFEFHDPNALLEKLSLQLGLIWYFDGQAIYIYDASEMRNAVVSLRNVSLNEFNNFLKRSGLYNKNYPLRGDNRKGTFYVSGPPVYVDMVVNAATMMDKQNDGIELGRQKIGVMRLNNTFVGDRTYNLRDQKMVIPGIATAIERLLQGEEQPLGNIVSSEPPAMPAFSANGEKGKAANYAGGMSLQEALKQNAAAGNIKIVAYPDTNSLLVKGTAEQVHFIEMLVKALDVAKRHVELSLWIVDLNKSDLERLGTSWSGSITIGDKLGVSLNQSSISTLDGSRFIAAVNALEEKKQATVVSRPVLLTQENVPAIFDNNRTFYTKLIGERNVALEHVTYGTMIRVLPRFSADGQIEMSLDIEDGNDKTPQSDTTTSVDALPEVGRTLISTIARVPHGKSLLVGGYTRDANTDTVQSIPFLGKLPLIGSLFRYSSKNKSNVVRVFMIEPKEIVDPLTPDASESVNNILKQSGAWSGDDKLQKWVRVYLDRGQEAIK

[2] = tested on: T2-dependent secretion of elastase; assay: Elastolytic activity assay of culture supernatants (elastin Congo red); conditions: 380 μM; 18 hour culture (PAO1-C); untreated PAO1 1.881, pilD 0.098
[3] = tested on: P. aeruginosa twitching motility (T4P); assay: Twitching assay; assay type: cell-based, Pseudomonas aeruginosa; conditions: 380 μM in motility plates
bone marrow macrophages = assay: Cytotoxicity of compound added directly to macrophages (LDH release)
flagellar T3S system = assay: Flagellar function: motility assay and flagellin secretion; assay type: cell-based, S. typhimurium; conditions: 380 μM
Ysa T3S system = assay: Secretion profile of Y. enterocolitica Ysa T3S system; assay type: cell-based, Yersinia enterocolitica; conditions: 380 μM
[4] = tested on: type III secretion in S. typhimurium; assay: microbe, parasite or virus in culture; assay type: cell-based, Salmonella enterica serovar Typhimurium; conditions: for inhibition at 33 µM / inhibition at 330 µM / inhibition at 3.3 µM: Salmonella enterica, TYPHIMURIUM, read-out: % inhibition of SipA secretion
[5] = tested on: invF, prgH, and sipA genes; assay: Transcriptional reporter fusions of T3S genes to lacZ, β-Galactosidase activity; conditions: cultures grown in presence vs absence of compound
[6] = tested on: bone marrow macrophages infected with S. typhimurium; assay: S. typhimurium T3-dependent cytotoxicity of bone marrow macrophages (LDH release); conditions: bacteria grown in presence of compound; multiplicity of 40; 40% without compound
[7] = tested on: Francisella virulence protein secretion; assay type: cell-based, Francisella novicida; conditions: 380 μM
[8] = tested on: Pseudomonas syringae pv tomato DC3000; assay: Hypersensitivity response (HR) in non-host tobacco plants; assay type: in vivo; conditions: 380 μM, overlapping infiltration, compared with solvent alone; 24 hours
Source text: Inhibition of T3S-dependent pathogenesis of the plant pathogen, Pseudomonas syringae pv tomato DC3000 for tobacco. The bacterial plant pathogen Pseudomonas syringae pv tomato DC3000 requires T3S of virulence determinants to cause disease. The hypersensitivity response (HR) elicited by P. syringae in non-host tobacco plants depends upon a functional T3S system, representing an established virulence model for this pathogen. To determine the effect of Compound 1 on P. syringae pathogenesis for plants, overlapping infiltrations of P. syringae and Compound 1 were performed. P. syringae was inoculated on non-host tobacco plants and monitored for HR. Bacterial inoculations partially overlapped inoculations of either 380 μM of Compound 1 or the solvent DMSO. HR was measured by tissue collapse of plants cells in the overlapping region.
Therefore, these compounds, which blocked disease in an important model of plant pathogenesis, may have utility in preventing disease of plants.

## COc1cc(/C=C2\S/C(=N\c3ccccc3)N(c3ccccc3)C2=O)cc(OC)c1O [Compound 1]
InvG, PrgH and PrgK
  InvG cellular levels and bacterial membrane localization: unaltered
  protein levels and localization of PrgH and PrgK: unchanged
Ysc T3S system
  Yop proteins in culture supernatants: absent
[1]
  secretion of SipA and SspH1 expressed from the T3S-independent lac promoter: Neither of these proteins was secreted
[1]; cultures grown in presence of compound
  amount of T3 secreted proteins SipA, B, and C: marked decrease
T3S needle complex (NC); 380 μM, Western blot
  NC proteins in isolated needle complexes: overall reduction
T3S needle complex (NC); electron micrographs of osmotically shocked cells
  NC number on the cell surface: marked reduction
[2]
  OD495, elastolytic activity of culture supernatant: 0.437
[3]
  P. aeruginosa twitching motility: significantly reduced
Bone marrow macrophages
  lysis of macrophages exposed to compound alone: did not lyse
Flagellar T3S system
  S. typhimurium motility: unaffected
  secretion of flagellin: unaltered
Ysa T3S system
  Ysp proteins in culture supernatants: absent
[4]; 380 uM
  inhibition of known T3S substrates: complete inhibition
[4]; type III secretion in S. typhimurium, SipA secretion by Western blot
  % Secretion: 0 ± 0%
[5]
  β-Galactosidase activity of invF, prgH, sipA lacZ fusions: similar
[6]
  caspase-1 dependent cell death of macrophages: 0.5%
[7]
  secretion of the known Francisella virulence proteins: inhibited secretion
[8]
  ability of P. syringae to elicit HR: reduced ability to elicit HR

## COc1cc(/C=C2\S/C(=N\c3ccccc3)N(C(CCCNC(=N)N)C(=O)N3Cc4ccccc4C[C@H]3C(N)=O)C2=O)cc(OC)c1O (stereo partly drawn) [compound 88, (S)-2-(5-guanidino-2-((2Z,5Z)-5-(4-hydroxy-3,5-dimethoxybenzylidene)-4-oxo-2-(phenylimino)thiazolidin-3-yl)pentanoyl)-1,2,3,4-tetrahydroisoquinoline-3-carboxamide]
[4]
  inhibition at 33 µM: 0%
  inhibition at 330 µM: 100%

## COc1cc(/C=C2\SC(=Nc3ccccc3)N([C@@H](CCCN)C(=O)N[C@@H](CC3CNc4ccccc43)C(N)=O)C2=O)cc(OC)c1O (stereo partly drawn) [compound 90, (S)-5-amino-N-((S)-1-amino-3-(indolin-3-yl)-1-oxopropan-2-yl)-2-((5Z)-5-(4-hydroxy-3,5-dimethoxybenzylidene)-4-oxo-2-(phenylimino)thiazolidin-3-yl)pentanamide]
[4]
  inhibition at 3.3 µM: 20%
  inhibition at 33 µM: 22%
  inhibition at 330 µM: 100%

## COc1cc(/C=C2\S/C(=N\c3ccccc3)N([C@@H](CCCN)C(=O)N[C@@H](Cc3ccc(-c4ccccc4)cc3)C(N)=O)C2=O)cc(OC)c1O [compound 91]
[4]; 3.3 µM
  % inhibition of SipA secretion: 100 (330) 66 (33) 3 (3.3) %
[4]; 33 µM
  % inhibition of SipA secretion: 100 (330) 66 (33) 3 (3.3) %
[4]; 330 µM
  % inhibition of SipA secretion: 100 (330) 66 (33) 3 (3.3) %

## COc1cc(/C=C2\S/C(=N\c3ccccc3)N(C(CCCNC(=N)N)C(=O)N3CSC[C@H]3C(N)=O)C2=O)cc(OC)c1O (stereo partly drawn) [compound 94, (R)-3-(5-guanidino-2-((2Z,5Z)-5-(4-hydroxy-3,5-dimethoxybenzylidene)-4-oxo-2-(phenylimino)thiazolidin-3-yl)pentanoyl)thiazolidine-4-carboxamide]
[4]
  inhibition at 3.3 µM: 3%
  inhibition at 33 µM: 7%
  inhibition at 330 µM: 89%

## COc1cc(/C=C2\S/C(=N\c3ccccc3)N(C(Cc3ccncc3)C(=O)N[C@@H](CCCNC(=N)N)C(N)=O)C2=O)cc(OC)c1O (stereo partly drawn) [compound 95, (S)-5-guanidino-2-(2-((2Z,5Z)-5-(4-hydroxy-3,5-dimethoxybenzylidene)-4-oxo-2-(phenylimino)thiazolidin-3-yl)-3-(pyridin-4-yl)propanamido)pentanamide]
[4]
  inhibition at 33 µM: 8%
  inhibition at 330 µM: 89%

## COc1cc(/C=C2\S/C(=N\c3ccccc3)N([C@@H](Cc3ccc(-c4ccccc4)cc3)C(=O)N[C@@H](CCCNC(=N)N)C(N)=O)C2=O)cc(OC)c1O [compound 96]
[4]; 3.3 µM
  % inhibition of SipA secretion: 100 (330) 95 (33) 54 (3.3) %
[4]; 33 µM
  % inhibition of SipA secretion: 100 (330) 95 (33) 54 (3.3) %
[4]; 330 µM
  % inhibition of SipA secretion: 100 (330) 95 (33) 54 (3.3) %

## COc1cc(/C=C2\S/C(=N\c3ccccc3)N([C@@H](CC3CNc4ccccc43)C(=O)N[C@@H](CCCNC(=N)N)C(N)=O)C2=O)cc(OC)c1O (some centres unmarked) [compound 98]
[4]; 3.3 μM, Western blot
  % inhibition of SipA secretion: 2%
[4]; 33 μM, Western blot
  % inhibition of SipA secretion: 12%
[4]; 330 μM, Western blot
  % inhibition of SipA secretion: 100%
